Measured values as given in PubChem BioAssay (NCI).
Several values for one entry are separate records, joined by “and”; a condition that tells them apart may be missing. Equal values may be shown once.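 All cell lines were grown in 96-well plates and treated with compound for 48 hours. Here, GI50 denotes the concentration required for 50% inhibition of growth. TGI denotes the concentration required for complete inhibition of growth.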

Key:
Test in all cases: DTP human tumour cell line panel, 48 h
ACHN renal = test system: ACHN renal
NCI-H226 lung = test system: NCI-H226 lung
786-0 renal = test system: 786-0 renal
SK-MEL-2 melanoma = test system: SK-MEL-2 melanoma
UACC-257 melanoma = test system: UACC-257 melanoma
HOP-62 NSCLC = test system: HOP-62 NSCLC
CCRF-CEM leukemia = test system: CCRF-CEM leukemia
HS 578T breast = test system: HS 578T breast
MDA-MB-231 breast = test system: MDA-MB-231 breast

Work on CCOC(=O)C(C(=O)OCC)=C1N[C@H](C(=O)OCC)CS1 yielded a TGI (ACHN renal) greater than 100 µM, a TGI (NCI-H226 lung) greater than 100 µM and a TGI (786-0 renal) greater than 100 µM. The TGI (SK-MEL-2 melanoma) was greater than 100 µM, the TGI (UACC-257 melanoma) was greater than 100 µM and the TGI (HOP-62 NSCLC) was greater than 100 µM. The TGI (CCRF-CEM leukemia) was greater than 100 µM.
In the case of CCCCCNC(=O)c1c(O)[nH]c(=S)[nH]c1=O, the TGI (ACHN renal) is reported as greater than 100 µM, the TGI (NCI-H226 lung) is reported as greater than 100 µM and the TGI (786-0 renal) is reported as greater than 100 µM. It also gave a TGI (SK-MEL-2 melanoma) greater than 100 µM, a TGI (UACC-257 melanoma) greater than 100 µM and a TGI (HOP-62 NSCLC) greater than 100 µM. For the same compound, the TGI (CCRF-CEM leukemia) was greater than 100 µM.
With O=C(c1nc2ccc(Cl)cc2[nH]c1=O)C(O)c1ccc2c(c1)OCO2 (centres undefined) the TGI (ACHN renal) was greater than 100 µM, the TGI (NCI-H226 lung) was greater than 100 µM and the TGI (786-0 renal) was greater than 100 µM. For the same compound, the TGI (SK-MEL-2 melanoma) was greater than 100 µM, the TGI (UACC-257 melanoma) was greater than 100 µM and the TGI (HOP-62 NSCLC) was greater than 100 µM. For the same compound, the TGI (CCRF-CEM leukemia) was greater than 100 µM.
Cc1c(C(=O)/C=C/c2c(Cl)cccc2Cl)c(=O)n(-c2ccccc2)n1C showed a TGI (ACHN renal) greater than 100 µM, a TGI (NCI-H226 lung) of 39.1 µM and a TGI (786-0 renal) of 38.6 µM. The TGI (SK-MEL-2 melanoma) was 75 µM, the TGI (UACC-257 melanoma) was greater than 100 µM and the TGI (CCRF-CEM leukemia) was 56.6 µM.
With CC(=O)c1ccc(NC(=O)C(=O)C(C(=O)c2ccc(Cl)c(Cl)c2)C2OC(=O)c3ccccc32)cc1 (centres undefined) the TGI (ACHN renal) was 45.5 µM, the TGI (NCI-H226 lung) was 24.6 µM and the TGI (786-0 renal) was 33.8 µM. The TGI (UACC-257 melanoma) was greater than 100 µM, the TGI (HOP-62 NSCLC) was 45.3 µM and the TGI (CCRF-CEM leukemia) was greater than 100 µM.
In the case of CCC1CC(C)=CCN1S(=O)(=O)c1ccc(C)cc1 (centres undefined), the TGI (ACHN renal) is reported as greater than 100 µM, the TGI (NCI-H226 lung) is reported as 80.7 µM and the TGI (786-0 renal) is reported as greater than 100 µM. For the same compound, the TGI (SK-MEL-2 melanoma) was 27.2 µM, the TGI (UACC-257 melanoma) was greater than 100 µM and the TGI (HOP-62 NSCLC) was 84.6 µM. The TGI (CCRF-CEM leukemia) was 75.7 µM.
Work on O=C(O)c1cccc2cccc(C(=O)O)c12.[Hg] yielded a GI50 (ACHN renal) of 17.7 µM, a TGI (ACHN renal) of 31.8 µM and a GI50 (NCI-H226 lung) of 21.1 µM. It also gave a TGI (NCI-H226 lung) of 40.7 µM, a GI50 (786-0 renal) of 15.4 µM and a TGI (786-0 renal) of 29.1 µM. It also gave a GI50 (SK-MEL-2 melanoma) of 17.4 µM, a TGI (SK-MEL-2 melanoma) of 31.6 µM and a GI50 (UACC-257 melanoma) of 16.7 µM. For the same compound, the TGI (UACC-257 melanoma) was 30.8 µM, the GI50 (HOP-62 NSCLC) was 20.8 µM and the TGI (HOP-62 NSCLC) was 35.3 µM. The GI50 (CCRF-CEM leukemia) was 6.92 µM and the TGI (CCRF-CEM leukemia) was 29.2 µM.
For CCOC(=O)N[C@@H]1C2CC(=O)C(O2)[C@@H]1OC (some centres undefined), the TGI (ACHN renal) was greater than 100 µM, the TGI (NCI-H226 lung) was greater than 100 µM and the TGI (786-0 renal) was greater than 100 µM. For the same compound, the TGI (SK-MEL-2 melanoma) was greater than 100 µM, the TGI (UACC-257 melanoma) was greater than 100 µM and the TGI (HOP-62 NSCLC) was greater than 100 µM. It also gave a TGI (CCRF-CEM leukemia) greater than 100 µM.
CCOC(=O)C(=O)Nc1c(C)cccc1C(C)C showed a TGI (ACHN renal) greater than 100 µM, a TGI (NCI-H226 lung) greater than 100 µM and a TGI (786-0 renal) greater than 100 µM. It also gave a TGI (SK-MEL-2 melanoma) greater than 100 µM, a TGI (UACC-257 melanoma) greater than 100 µM and a TGI (HOP-62 NSCLC) greater than 100 µM. For the same compound, the TGI (CCRF-CEM leukemia) was greater than 100 µM.
Cc1cc(=O)oc2c(OS(C)(=O)=O)c(OS(C)(=O)=O)ccc12 gave a TGI (ACHN renal) greater than 100 µM, a TGI (HS 578T breast) greater than 100 µM and a TGI (NCI-H226 lung) greater than 100 µM. The TGI (MDA-MB-231 breast) was greater than 100 µM, the TGI (786-0 renal) was greater than 100 µM and the TGI (SK-MEL-2 melanoma) was greater than 100 µM. For the same compound, the TGI (UACC-257 melanoma) was greater than 100 µM, the TGI (HOP-62 NSCLC) was greater than 100 µM and the TGI (CCRF-CEM leukemia) was greater than 100 µM.
CCCCCCCCCCCCCCCCCC(=O)OCC(C[As](=O)(O)O)OC(=O)CCCCCCCCCCCCCCCCC (centres undefined) was tested, and the TGI (ACHN renal) was greater than 100 µM, the TGI (NCI-H226 lung) was 70.4 µM and the TGI (786-0 renal) was greater than 100 µM. The TGI (SK-MEL-2 melanoma) was greater than 100 µM, the TGI (UACC-257 melanoma) was greater than 100 µM and the TGI (HOP-62 NSCLC) was 85.2 µM. The TGI (CCRF-CEM leukemia) was greater than 100 µM.
CCC[CH2][Sn]1([CH2]CCC)[O]CC(CN2CCOCC2)[O]1 (centres undefined) gave a GI50 (ACHN renal) of 3.02 µM, a TGI (ACHN renal) of 9.61 µM and a GI50 (NCI-H226 lung) of 20.2 µM. It also gave a TGI (NCI-H226 lung) of 34.8 µM, a GI50 (786-0 renal) of 2.63 µM and a TGI (786-0 renal) of 7.39 µM. The GI50 (SK-MEL-2 melanoma) was 1.53 µM, the TGI (SK-MEL-2 melanoma) was 3.66 µM and the GI50 (UACC-257 melanoma) was 4.29 µM. It also gave a TGI (UACC-257 melanoma) of 15.1 µM, a GI50 (HOP-62 NSCLC) of 8.8 µM and a TGI (HOP-62 NSCLC) of 20.4 µM. It also gave a GI50 (CCRF-CEM leukemia) of 0.995 µM and a TGI (CCRF-CEM leukemia) of 4.84 µM.
Compound CN(C)C1=NC2=S(SC(Nc3ccccc3)=N2)S1 (centres undefined) has a TGI (ACHN renal) greater than 100 µM, a TGI (NCI-H226 lung) greater than 100 µM and a TGI (786-0 renal) greater than 100 µM. It also gave a TGI (SK-MEL-2 melanoma) greater than 100 µM, a TGI (UACC-257 melanoma) of 70.8 µM and a TGI (HOP-62 NSCLC) of 67.7 µM. The TGI (CCRF-CEM leukemia) was greater than 100 µM.
Work on NCCCNCCSSC/C=C\CSSCCNCCCN yielded a TGI (ACHN renal) greater than 100 µM, a TGI (786-0 renal) greater than 100 µM and a TGI (SK-MEL-2 melanoma) greater than 100 µM. For the same compound, the TGI (UACC-257 melanoma) was > 100 µM and 76.8 µM, the GI50 (HOP-62 NSCLC) was > 100 µM and 33.2 µM and the TGI (HOP-62 NSCLC) was > 100 µM and 93.4 µM. For the same compound, the TGI (CCRF-CEM leukemia) was 32.3 µM and 62.5 µM.
In the case of O=NN/C(=C1\Nc2ccc([N+](=O)[O-])cc2NC1=O)C(O)c1ccc([N+](=O)[O-])cc1 (centres undefined), the TGI (ACHN renal) is reported as greater than 100 µM, the TGI (NCI-H226 lung) is reported as greater than 100 µM and the TGI (786-0 renal) is reported as greater than 100 µM. It also gave a TGI (UACC-257 melanoma) greater than 100 µM, a TGI (HOP-62 NSCLC) greater than 100 µM and a TGI (CCRF-CEM leukemia) greater than 100 µM.
Cc1ccc(C(=O)C#Cc2c[nH]c(=O)[nH]c2=O)cc1 was tested, and the TGI (ACHN renal) was 29 µM, the TGI (NCI-H226 lung) was 34.5 µM and the TGI (786-0 renal) was 26.2 µM. The TGI (SK-MEL-2 melanoma) was 27.6 µM, the TGI (UACC-257 melanoma) was 34.6 µM and the TGI (HOP-62 NSCLC) was 87.7 µM. For the same compound, the TGI (CCRF-CEM leukemia) was 18.8 µM.
With COc1cc(Nc2nc3cc(C(F)(F)F)ccc3nc2-c2ccccc2)cc(OC)c1OC the TGI (ACHN renal) was greater than 100 µM, the TGI (NCI-H226 lung) was greater than 100 µM and the TGI (786-0 renal) was greater than 100 µM. It also gave a TGI (SK-MEL-2 melanoma) greater than 100 µM, a TGI (UACC-257 melanoma) greater than 100 µM and a TGI (HOP-62 NSCLC) of 94.6 µM. The TGI (CCRF-CEM leukemia) was greater than 100 µM.
In the case of CCCc1nc(NC#N)nc(C(=O)NC23CC4CC(CC(C4)C2)C3)c1C, the TGI (ACHN renal) is reported as greater than 100 µM, the TGI (NCI-H226 lung) is reported as greater than 100 µM and the TGI (786-0 renal) is reported as greater than 100 µM. The TGI (SK-MEL-2 melanoma) was greater than 100 µM, the TGI (UACC-257 melanoma) was greater than 100 µM and the TGI (HOP-62 NSCLC) was greater than 100 µM. It also gave a TGI (CCRF-CEM leukemia) greater than 100 µM.
